Measurements published in patent US20240342685A1, “ABSORBENT COMPOUNDS FOR CAPTURING CARBON DIOXIDE” (The Regents of the University of California, priority 2021, published 2024).
Like-named read-outs stand apart in the source and are kept apart here.

Experiments:
[1] = cited from earlier work
[2] = Aspen Plus absorber/stripper process model, CO2 vapor liquid equilibrium; conditions: 11% mole fraction
From the text: For example, the suitability of a PEP variant for non-enzymatic carbon capture can be evaluated by modeling. The Electric Power Research Institute (EPRI; Palo Alto, CA) maintains and operates Aspen Plus process models based on the absorber/stripper configuration shown in FIG. 21 and standard operational parameters (e.g., as described in the Examples). These models are configured to accept generalized solvent (absorbent) properties and calculate the resulting energy penalty. Model inputs can include the solubility, viscosity, and heat capacity of the PEP variant, as well as the CO2 vapor liquid equilibrium (VLE) of the underlying carbon capture reaction equilibrium (absorption/desorption). VLE describes the number of moles CO2 per unit volume solution absorbed via reaction and dissolution as a function of CO2 partial pressure above solution. […] At higher temperature (e.g., 120° C. stripper), reactants are favored and HCO3 desorbs, releasing CO2 back into the gas phase for capture and compression. The difference ACO2 between these temperature extremes determines the absorption capacity of the solvent, or cyclic capacity of the absorber/stripper system.
These models can be used to quantify the energy penalty of a PEP variant for carbon capture chemistry relative to the MEA benchmark. […] The improvement can be evaluated at the temperatures of the absorber (40° C.) and stripper (120° C.).

[3] = Shear viscosity by Green-Kubo relation, MD simulation; conditions: aqueous solution
Procedure: These simulations were performed under the same conditions and with the same forcefield as the PEP simulations. The shear viscosity of a liquid can be computed through several different atomistic simulation methods. […] In this method, the shear viscosity is obtained from the integral over time of the pressure tensor autocorrelation function: where V is the volume of the system, kB is the Boltzmann constant, T is temperature, Pxy denotes the element xy of the pressure tensor, and the angle bracket refers to the ensemble average. Viscosity plays an important role in pumping costs for moving aqueous PEP solutions between the absorber and stripper.

[4] = in water at 298 K; non-reactive MD literature; cited from earlier work
[5] = pure water; cited from earlier work

| SMILES | Enthalpy of Solution, Literature value ([1]; 3 m to 4 m) | Enthalpy of Solution, Literature value ([1]; 3 m to 5 m) | Enthalpy of Solution, Literature value ([1]; 4 m to 5 m) | further results |
| --- | --- | --- | --- | --- |
| CC(=O)O [Acetic Acid] | -0.0461 kcal/mol | -0.0418 kcal/mol | -0.088 kcal/mol |  |
| O=CO [Formic Acid] | 0 kcal/mol | 0 kcal/mol | 0 kcal/mol |  |
| NCCO [MEA, monoethanolamine] |  |  |  | CO2 remaining bound in solution during absorber-stripper cycling ([2]; CCNG): 16%; CO2 remaining bound in solution during absorber-stripper cycling ([2]; SCPC): 29% |
| C=C(OP(=O)(O)O)C(=O)O [PEP, phosphoenolpyruvate] |  |  |  | viscosity relative to the standard MEA solution ([3]; 45 to 55 wt %): roughly triple; real viscosity ([3]; 45 to 55 wt % (9.8 mol %), estimated): about 3 mPa*s |
| O=C(O)O [bicarbonate] |  |  |  | diffusion coefficient, published literature [4]: 1.17×10^−9 m^2s^−1 |
| O [water] |  |  |  | viscosity, expected value [5]: around 0.79 mPa·s |
